Reference: patent US20100016435A1, “HYBRID MOLECULES HAVING MIXED VITAMIN D RECEPTOR AGONISM AND HISTONE DEACETYLASE INHIBITORY PROPERTIES” (McGill University, priority 2006, published 2010)
One block for each compound: values may come before it.

How the values were obtained:
SCC25 cells [1] = conditions: cited from earlier work
SCC25 cells [2] = assay: Antiproliferative activity in SCC25 cells; type: cell-based; conditions: 1 at 1 nM or 100 nM; 3 15 nM; combination 3 with 100 nM 1; FIG. 7B
Source text: FIG. 7 is an illustration of the antiproliferative activities of 1 and 3, individually or in combination, in SCC4 cells (A) or in SCC25 cells (B) at the concentrations indicated.

histone H4 = assay: Histone H4 acetylation, Western blot; type: cell-based, human; conditions: SCC4 cells, 6 h
Source text: (§1) FIG. 4 is an illustration of the HDAC inhibitory activity of 3 in the SCC4 cell line. FIG. 4A is an illustration of a western blot of nuclear and cytoplasmic extracts of SCC4 cells treated with vehicle (−), 1, or 3 alone or in combination, as indicated. The 55 kDa band corresponds to the molecular weight of tubulin. FIG. 4B illustrates a western blot probed with an antibody directed against acetylated histone H4 (AcH4) showing the effects of the treatments described in A on acetylation of histone H4. FIG. 4C illustrates western blots of the effects of treatments described in A on levels of total alpha-tubulin (left) and acetylated alpha-tubulin (right).
(§2) In preliminary experiments, TSA-inducible protein acetylation was analyzed in nuclear and cytoplasmic extracts of SCC4 cells treated for 6 h with 1, 3, or 1 and 3 and subsequently probed by Western blotting for protein acetylation using an anti-acetyllysine antibody. […] Effects of 3 on histone acetylation specifically, were confirmed by probing for acetylation of histone H4 (FIG. 4B). […] However, it was not clear whether this corresponded to enhanced expression or acetylation. […] This was confirmed by probing cytoplasmic fractions with an antibody that recognized α-tubulin (FIG. 4C). Calcitriol (1) had no effect on the acetylation of α-tubulin, and none of the treatments had any substantial effect on total α-tubulin expression (FIG. 4C).

SCC4 cells [3] = assay: Protein acetylation in nuclear and cytoplasmic extracts, Western blot with anti-acetyllysine antibody; type: cell-based, human; conditions: 6 h
Source text: as §1, §2

SCC4 cells [4] = assay: Cell cycle distribution by FACS analysis; type: cell-based, human; conditions: 100 nM 1, or 100 nM 1 and 15 nM 3; 72 h
Method: FIG. 11 is an illustration of the results obtained by fluorescence-activated cell sorting (FACS) analysis on the distribution of SCC4 cells in the cell cycle following treatment with vehicle (−), 1, or 1 and 3 together at the concentrations indicated.
The combined effects of 1 and 3 on the distribution of SCC4 cells in the cell cycle were assessed by FACS analysis (FIG. 11). Cells were treated with vehicle, 100 nM 1, or a combination of 100 nM 1 and 15 nM 3 for 72 h, as indicated.

α-tubulin = assay: α-Tubulin acetylation in SCC4 cells, Western blot; type: cell-based, human; conditions: for levels of acetylated alpha-tubulin normalized for total alpha-tubulin: 3 15 nM, 36 or 39 10^−6 or 10^−7M, 6 h or 24 h, FIG. 6C
Source text: as §1
FIG. 6 is a comparison of the HDAC inhibitory activities of 1, 3, 6, 36 or 39 as assessed by their effects on acetylation of alpha-tubulin. In A, SCC4 cells were incubated with vehicle or compound 1 (10^−6M), 3 (15 nM), 6 (10^−6M) and 36 (10^−6M), as indicated for 6 h and protein extracts were probed for total α-tubulin (Tub.) or acetylated α-tubulin (AcTub.) by Western blotting. Blots for acetylated alpha-tubulin and total alpha-tubulin are shown. In B, SCC4 cells were incubated with vehicle or compound 3 (15 nM), 6 (10^−6M) or 36 (10^−6M) as indicated for 6 h or 24 h and protein extracts were probed for acetylated α-tubulin (AcTub.) by Western blotting. In C, SCC4 cells were incubated with vehicle or compounds 3 (15 nM), 36 (10^−6 or 10^−7M) or 39 (10^−6 or 10^−7M) as indicated for 6 h or 24 h and protein extracts were probed for total α-tubulin (tub.) or acetylated α-tubulin (AcTub.) by Western blotting.
as §2
SCC4 cells were incubated with vehicle or compound as indicated for 6 h and cytoplasmic protein extracts were probed by Western blotting using a specific antibody for acetylated α-tubulin.

SCC4 cells [5] = assay: Immunocytochemical and morphological analysis (mitotic catastrophe); type: cell-based, human
Source text: FIG. 12 is an illustration of the immunocytochemical analysis of the effects of 1, 3, or 1 and 3 combined on SCC4 cells (A). […] Both phenotypes are characteristics of mitotic catastrophe. The lower panels (B) show cytoplasmic bridges between SCC4 cells treated with 1 and 3, consistent with the formation of the tubulin bridges seen above in A.
Assembly into microtubules is regulated by acetylation. […] Previous studies have shown that microtubule stabilizing agents can induce mitotic catastrophe (ref. 30). […] The formation of intercellular microtubular structures was consistent with observations in the light microscope of numerous intercellular bridges in cells treated with both 1 and 3 (FIG. 12B, arrows), but not in other treatment groups (not shown).

SCC4 cells [6] = conditions: cited from earlier work
SCC4 cells [7] = assay: Acidic β-galactosidase activity (marker of autophagy), X-Gal staining and 620 nm measurement; type: cell-based, human; conditions: for acidic β-galactosidase staining (X-Gal, pH 4.0), cytochemical: qualitative, FIG. 10A
Source text: FIG. 10 is an illustration of the effects of 1, 3, 1+3 and 6 on the induction of acidic β-galactosidase activity, a marker of autophagy (A); FIG. 10 is an illustration of the effects 1, 3, 1+3 and 6 on the levels of β-galactosidase expression as obtained by measuring the indigo cleavage product of X-Gal at 620 nm (B).
Since it was observed that treatment with 1 could enhance cell death by autophagy (ref. 26), the effects of different treatments on the induction of acidic β-galactosidase activity, a marker of autophagy (FIG. 10A) was tested.

SCC4 cells [8] = assay: Antiproliferative activity in SCC4 cells
Method: Tissue culture media was changed daily and fresh 1, 6 or vehicle were added.

human VDR = target: T1, human VDR (Homo sapiens, UniProt P11473); assay: Reporter gene assay (VDRE-luciferase) in transiently transfected COS7 cells; type: cell-based
T1 construct: expressed in transfected cells; host or cells: COS7
T1 sequence (P11473 1-427): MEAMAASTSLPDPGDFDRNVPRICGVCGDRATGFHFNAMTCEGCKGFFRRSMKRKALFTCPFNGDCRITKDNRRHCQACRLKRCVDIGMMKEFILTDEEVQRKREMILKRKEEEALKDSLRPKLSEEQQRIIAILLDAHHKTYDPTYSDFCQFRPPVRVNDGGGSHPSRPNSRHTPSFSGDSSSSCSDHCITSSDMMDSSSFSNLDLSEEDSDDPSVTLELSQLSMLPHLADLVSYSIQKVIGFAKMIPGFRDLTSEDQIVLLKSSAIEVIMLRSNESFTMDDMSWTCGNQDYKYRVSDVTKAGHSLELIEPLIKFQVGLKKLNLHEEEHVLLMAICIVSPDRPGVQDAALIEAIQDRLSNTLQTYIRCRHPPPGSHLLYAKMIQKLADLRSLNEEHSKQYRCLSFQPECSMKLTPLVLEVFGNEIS
Method: FIG. 2 is an illustration of the vitamin D receptor agonist activity of 6 using a reporter gene assay in transiently transfected COS7 cells.
Hybrid molecule 6 was tested for calcitriol agonist activity using a reporter gene assay under standard conditions.^25,26 COS7 cells were transiently co-transfected with a plasmid expression vector for the human VDR, a plasmid vector expressing bacterial β-galactosidase from a constitutively active promoter (as an internal control for transfection efficiency), and a vector containing a luciferase reporter gene, under control of a previously described synthetic promoter composed of three high affinity VDREs (Vitamin D Response Elements) placed immediately upstream of a truncated promoter region from the herpes simplex virus thymidine kinase gene.^25 Cells were left overnight in the presence of DNA and transfection reagent (lipofectamine). The media were changed and cells were incubated in fresh media containing either vehicle (DMSO), 1 (100 nM), 3 (15 nM), 1 and 3 combined (100 nM/15 nM) or 6 (100 nM), and incubated a further 36 h.

SCC4 cells [9] = assay: Annexin V staining by FACS (apoptotic cell death); type: cell-based, human; conditions: after pretreatment with UV light
Method: (§3) FIG. 9 is an illustration of the effects of 1, 3, 1+3, 6 and 36 administered at the concentrations indicated on cell viability in two models. The viability of MCF-7 breast cancer cells was monitored after 24 h of incubation using a trypan blue dye exclusion assay (A).
(§4) The effect of 1, 3, 1+3, 6 and 36 on cell viability was tested in two models. The viability of MCF-7 breast cancer cells was monitored after 24 h of incubation using a trypan blue dye exclusion assay (FIG. 9A). […] The effects of 100 nM 1, 15 nM 3 (TSA), 1 and 3 combined (100 nM/15 nM) and 100 nM 6 (hybrid molecule) on cell viability were tested by screening for induction of markers of apoptotic cell death. Annexin V staining was screened by FACS analysis as in Tavera-Mendoza et al.^26 While all treatments induced modest increases in annexin V staining, apoptosis could be excluded as the major cause of cell death (FIG. 9B).

PC3 = assay: Antiproliferative activity in PC3 prostate cancer cells; type: cell-based; conditions: PC3, data not shown
HDAC = assay: Colorimetric HDAC assay with nuclear extracts of SCC4 cells; type: biochemical, human
Method: FIG. 5 is a comparison of the capability of 3 and 6 (20 nM and 200 nM) in blocking deacetylation of a substrate that absorbs at 405 nm in its deacetylated form.
Hybrid molecule 6 was tested for HDAC inhibitory activity using a colorimetric assay as illustrated in FIG. 5. Nuclear extracts of SCC4 cells were incubated with vehicle, 3 or 6 in the presence of substrate for 60 min at 37° C. Following incubation with developer (1 min.), the absorbance was measured at 405 nm.

[10] = tested on: MCF-7 breast cancer cells; assay: Cell viability, trypan blue dye exclusion assay; type: cell-based; conditions: 24 h; 6 at 10^−7 or 10^−6M versus 1 at 10^−6M or 1 and 3; FIG. 9A
Method: as §3, §4

Du145 = assay: Antiproliferative activity in Du145 prostate cancer cells; type: cell-based; conditions: Du145, data not shown

Compound: C=C1/C(=C\C=C2/CCC[C@@]3(C)C2CCC3[C@H](C)CCCC(C)(C)O)C[C@@H](O)C[C@@H]1O (stereo partly drawn) [compound 1, 1α,25-Dihydroxyvitamin D3]
cell cycle arrest (SCC25 cells [1]): G0/G1 arrest
SCC25 proliferation / sensitivity (SCC25 cells [2]): relatively more sensitive
histone H4 acetylation (histone H4): little effect
levels of a product of ~70 kDa (SCC4 cells [3]; cytoplasmic extracts): modestly but consistently enhanced
acetylation of low molecular weight nuclear proteins (SCC4 cells [3]; nuclear extracts): no effect
proportion of cells in G1 (SCC4 cells [4]): augmented
proportion of cells in G2/M (SCC4 cells [4]): augmented
proportion of cells in S phase (SCC4 cells [4]): substantially diminished
acetylation of α-tubulin (α-tubulin; cytoplasmic fractions, FIG. 4C): no effect
cell morphology (SCC4 cells [5]; FIG. 12): did not differ from control cells
induction of mitotic catastrophe (SCC4 cells [5]; SCC4 cells): not 1 or 3 alone
resistance of SCC4 to antiproliferative effects (SCC4 cells [6]): resistant
acidic β-galactosidase staining (X-Gal, pH 4.0), cytochemical (SCC4 cells [7]): generally enhanced
SCC4 proliferation (SCC4 cells [8]; 1 nM or 100 nM 1, alone or with 15 nM 3, FIG. 7A): modest effects

expression from the internal control plasmid (β-galactosidase) (human VDR; COS7 cells): modestly enhanced expression
Compound: C=C1/C(=C\C=C2/CCC[C@@]3(C)C2CCC3[C@H](C)/C=C/C=C/C(O)(CC)CC)C[C@@H](O)C[C@@H]1O (stereo partly shown) [compound 4, EB1089]

reporter gene activity (calcitriol agonist activity) (human VDR; COS7, 36 h, 1 100 nM, 3 15 nM, 6 100 nM, not normalized): essentially identical to that of 1
Compound: CC(/C=C/C(=O)NO)=C\[C@@H](C)[C@H]1CC[C@H]2/C(=C/C=C3C[C@@H](O)C[C@H](O)C3)CCC[C@]12C [compound 6, (2E,4E,6R)-6-[(1R,3R,7E,17β)-1,3-dihydroxy-9,10secoestra-5,7-dien-17-yl]-N-hydroxy-4-methylhepta-2,4-dienamide]
annexin V staining versus 3, 1 or 1+3 (SCC4 cells [9]): substantially higher levels of apoptosis
antiproliferative activity (PC3): similar
fold less potent than TSA (3) (HDAC; HDAC inhibition): about 10 fold
inhibiting HDAC activity, compared with 3 (HDAC; equimolar concentrations (20 nM), 60 min at 37° C.): less effective
tubulin acetylation (α-tubulin; 1 μM, 6 h, FIG. 6A): marked tubulin acetylation
tubulin acetylation (α-tubulin; after 24 h, FIG. 6B): remains elevated
cell death (viability) [10]: markedly more cell death
levels of autophagy (SCC4 cells [7]; cytochemical and quantitative analysis): elevated levels of autophagy
increase in β-galactosidase expression versus 1 or 1+3 (SCC4 cells [7]; indigo cleavage product of X-Gal at 620 nm, FIG. 10B): ~30%
acidic β-galactosidase staining (X-Gal, pH 4.0), cytochemical (SCC4 cells [7]): higher percentage of cells that stained intensely
inhibition of SCC4 proliferation (SCC4 cells [8]; 96 h, media and compound changed daily, FIG. 8A): greater efficacy than 1
antiproliferative activity (Du145): similar

Compound: C[C@H](CCCC(=O)NO)[C@H]1CC[C@H]2/C(=C/C=C3C[C@@H](O)C[C@H](O)C3)CCC[C@]12C [compound 36]
levels of acetylated alpha-tubulin normalized for total alpha-tubulin (α-tubulin): observed only in cells treated with 3
tubulin acetylation (α-tubulin; 10^−6 M, 6 or 24 h, FIG. 6B): no effect

Compound: C[C@H](CCCCC(=O)NO)[C@H]1CC[C@H]2/C(=C/C=C3C[C@@H](O)C[C@H](O)C3)CCC[C@]12C [compound 39]
levels of acetylated alpha-tubulin normalized for total alpha-tubulin (α-tubulin): observed only in cells treated with 3
